Assay results as given in PMC11027041 (RSC Advances, 2024).

Experiments:
SK-MEL-5 = assay: NCI-60 antiproliferative screening; format: cell-based; conditions: Homo sapiens, SK-MEL-5, read-out: percent inhibition
[1] = system: colon cancer cell line HCT-116; assay: Cell viability assay; format: cell-based; conditions: Homo sapiens, HCT-116, 72 h, read-out: Antiproliferative IC50 HCT116
HDAC5 = HDAC5 (Homo sapiens, UniProt Q9UQL6); assay: In vitro HDAC enzyme assay; format: biochemical
ACHN = assay: NCI-60 antiproliferative screening; format: cell-based; conditions: Homo sapiens, read-out: percent inhibition
SNB-75 = assay: NCI-60 antiproliferative screening; format: cell-based; conditions: Homo sapiens, SNB-75, read-out: percent inhibition
RPMI-8226 = assay: NCI-60 antiproliferative screening; format: cell-based; conditions: Homo sapiens, RPMI-8226, read-out: percent inhibition
HDAC8 = HDAC8 (Homo sapiens, UniProt Q9BY41); assay: In vitro HDAC enzyme assay; format: biochemical
HCT-116 = assay: NCI-60 antiproliferative screening; format: cell-based; conditions: Homo sapiens, HCT-116, read-out: percent inhibition
IGROV1 = assay: NCI-60 antiproliferative screening; format: cell-based; conditions: Homo sapiens, IGROV-1, read-out: percent inhibition
KM12 = assay: NCI-60 antiproliferative screening; format: cell-based; conditions: Homo sapiens, KM12, read-out: percent inhibition
HT29 = assay: NCI-60 antiproliferative screening; format: cell-based; conditions: Homo sapiens, HT-29, read-out: percent inhibition
NCI/ADR-RES = assay: NCI-60 antiproliferative screening; format: cell-based; conditions: Homo sapiens, read-out: percent inhibition
NCI-H23 = assay: NCI-60 antiproliferative screening; format: cell-based; conditions: Homo sapiens, NCI-H23, read-out: percent inhibition
SR = assay: NCI-60 antiproliferative screening; format: cell-based; conditions: Homo sapiens, read-out: percent inhibition
T-47D = assay: NCI-60 antiproliferative screening; format: cell-based; conditions: Homo sapiens, T47D, read-out: percent inhibition
SW-620 = assay: NCI-60 antiproliferative screening; format: cell-based; conditions: Homo sapiens, SW-620, read-out: percent inhibition
UACC-257 = assay: NCI-60 antiproliferative screening; format: cell-based; conditions: Homo sapiens, UACC-257, read-out: percent inhibition
HOP-92 = assay: NCI-60 antiproliferative screening; format: cell-based; conditions: Homo sapiens, HOP-92, read-out: percent inhibition
SF-268 = assay: NCI-60 antiproliferative screening; format: cell-based; conditions: Homo sapiens, SF-268, read-out: percent inhibition
HDAC9 = HDAC9 (Homo sapiens, UniProt Q9UKV0); assay: In vitro HDAC enzyme assay; format: biochemical
TK-10 = assay: NCI-60 antiproliferative screening; format: cell-based; conditions: Homo sapiens, TK-10, read-out: percent inhibition
SK-MEL-2 = assay: NCI-60 antiproliferative screening; format: cell-based; conditions: Homo sapiens, SK-MEL-2, read-out: percent inhibition
UACC-62 = assay: NCI-60 antiproliferative screening; format: cell-based; conditions: Homo sapiens, UACC-62, read-out: percent inhibition
NCI-H226 = assay: NCI-60 antiproliferative screening; format: cell-based; conditions: Homo sapiens, NCI-H226, read-out: percent inhibition
SF-539 = assay: NCI-60 antiproliferative screening; format: cell-based; conditions: Homo sapiens, SF-539, read-out: percent inhibition
HDAC4 = HDAC4 (Homo sapiens, UniProt P56524); assay: In vitro HDAC enzyme assay; format: biochemical
HCT-15 = assay: NCI-60 antiproliferative screening; format: cell-based; conditions: Homo sapiens, HCT-15, read-out: percent inhibition
NCI-H460 = assay: NCI-60 antiproliferative screening; format: cell-based; conditions: Homo sapiens, NCI-H460, read-out: percent inhibition
OVCAR-5 = assay: NCI-60 antiproliferative screening; format: cell-based; conditions: Homo sapiens, OVCAR-5, read-out: percent inhibition
LOX IMVI = assay: NCI-60 antiproliferative screening; format: cell-based; conditions: Homo sapiens, read-out: percent inhibition
A549/ATCC = assay: NCI-60 antiproliferative screening; format: cell-based; conditions: Homo sapiens, A549, read-out: percent inhibition
HL60 = assay: NCI-60 antiproliferative screening; format: cell-based; conditions: Homo sapiens, HL-60, read-out: percent inhibition

Sequence of HDAC5 (Q9UQL6 whole entry): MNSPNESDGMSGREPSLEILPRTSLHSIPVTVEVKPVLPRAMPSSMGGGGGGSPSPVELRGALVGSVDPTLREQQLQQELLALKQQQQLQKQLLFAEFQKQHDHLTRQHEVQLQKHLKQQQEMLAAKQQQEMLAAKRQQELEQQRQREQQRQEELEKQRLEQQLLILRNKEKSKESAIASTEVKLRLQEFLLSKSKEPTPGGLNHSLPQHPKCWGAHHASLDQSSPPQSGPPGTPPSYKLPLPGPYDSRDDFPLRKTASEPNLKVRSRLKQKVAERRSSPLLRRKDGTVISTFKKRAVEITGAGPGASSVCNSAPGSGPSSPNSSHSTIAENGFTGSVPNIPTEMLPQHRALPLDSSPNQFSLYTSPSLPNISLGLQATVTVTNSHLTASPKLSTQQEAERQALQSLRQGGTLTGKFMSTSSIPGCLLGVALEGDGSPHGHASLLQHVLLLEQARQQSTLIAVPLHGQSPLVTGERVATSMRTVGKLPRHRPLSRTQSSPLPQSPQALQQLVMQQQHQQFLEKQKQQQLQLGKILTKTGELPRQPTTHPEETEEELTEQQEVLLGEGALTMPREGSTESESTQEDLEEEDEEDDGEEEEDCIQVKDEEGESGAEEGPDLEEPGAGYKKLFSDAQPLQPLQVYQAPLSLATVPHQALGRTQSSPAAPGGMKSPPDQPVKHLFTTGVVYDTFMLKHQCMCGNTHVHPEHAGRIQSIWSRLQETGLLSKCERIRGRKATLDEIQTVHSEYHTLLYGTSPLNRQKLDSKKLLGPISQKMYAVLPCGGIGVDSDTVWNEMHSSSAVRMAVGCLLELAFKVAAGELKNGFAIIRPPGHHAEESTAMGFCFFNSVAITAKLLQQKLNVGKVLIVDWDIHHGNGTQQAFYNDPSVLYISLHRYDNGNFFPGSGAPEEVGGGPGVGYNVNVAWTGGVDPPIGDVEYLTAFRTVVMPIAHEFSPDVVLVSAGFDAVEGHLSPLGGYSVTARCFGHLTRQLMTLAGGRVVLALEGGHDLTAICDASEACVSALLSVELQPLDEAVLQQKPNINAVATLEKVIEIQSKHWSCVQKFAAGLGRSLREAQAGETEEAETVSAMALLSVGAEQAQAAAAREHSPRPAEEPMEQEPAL
Sequence of HDAC4 (P56524 whole entry): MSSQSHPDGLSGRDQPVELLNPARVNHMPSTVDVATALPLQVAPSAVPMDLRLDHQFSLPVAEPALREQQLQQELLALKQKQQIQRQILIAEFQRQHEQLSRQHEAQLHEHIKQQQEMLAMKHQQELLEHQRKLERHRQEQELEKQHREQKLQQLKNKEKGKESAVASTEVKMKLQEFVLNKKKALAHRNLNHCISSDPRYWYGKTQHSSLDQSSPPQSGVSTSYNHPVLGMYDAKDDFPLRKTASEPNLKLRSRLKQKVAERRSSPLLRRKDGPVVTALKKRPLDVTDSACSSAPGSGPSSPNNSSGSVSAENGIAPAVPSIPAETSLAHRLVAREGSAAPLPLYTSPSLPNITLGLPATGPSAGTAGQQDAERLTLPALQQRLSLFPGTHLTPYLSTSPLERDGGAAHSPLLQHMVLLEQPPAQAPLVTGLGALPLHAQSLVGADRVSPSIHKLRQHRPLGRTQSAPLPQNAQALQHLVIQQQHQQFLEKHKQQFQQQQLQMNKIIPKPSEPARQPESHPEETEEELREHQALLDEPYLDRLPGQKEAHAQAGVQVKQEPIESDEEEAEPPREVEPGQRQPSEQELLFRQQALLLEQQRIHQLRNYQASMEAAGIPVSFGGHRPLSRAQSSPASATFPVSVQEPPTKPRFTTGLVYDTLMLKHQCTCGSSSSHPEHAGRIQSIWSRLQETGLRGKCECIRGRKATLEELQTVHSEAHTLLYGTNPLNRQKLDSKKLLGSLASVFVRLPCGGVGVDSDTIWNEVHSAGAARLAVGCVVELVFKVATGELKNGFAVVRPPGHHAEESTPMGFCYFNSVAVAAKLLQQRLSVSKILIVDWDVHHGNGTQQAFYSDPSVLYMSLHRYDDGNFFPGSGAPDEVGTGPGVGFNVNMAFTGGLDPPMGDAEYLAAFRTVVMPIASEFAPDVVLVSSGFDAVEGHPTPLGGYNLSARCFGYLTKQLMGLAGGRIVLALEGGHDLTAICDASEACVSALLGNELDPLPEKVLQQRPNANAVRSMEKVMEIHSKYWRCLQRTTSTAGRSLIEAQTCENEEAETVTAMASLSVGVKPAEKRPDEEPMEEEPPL
Sequence of HDAC9 (Q9UKV0 whole entry): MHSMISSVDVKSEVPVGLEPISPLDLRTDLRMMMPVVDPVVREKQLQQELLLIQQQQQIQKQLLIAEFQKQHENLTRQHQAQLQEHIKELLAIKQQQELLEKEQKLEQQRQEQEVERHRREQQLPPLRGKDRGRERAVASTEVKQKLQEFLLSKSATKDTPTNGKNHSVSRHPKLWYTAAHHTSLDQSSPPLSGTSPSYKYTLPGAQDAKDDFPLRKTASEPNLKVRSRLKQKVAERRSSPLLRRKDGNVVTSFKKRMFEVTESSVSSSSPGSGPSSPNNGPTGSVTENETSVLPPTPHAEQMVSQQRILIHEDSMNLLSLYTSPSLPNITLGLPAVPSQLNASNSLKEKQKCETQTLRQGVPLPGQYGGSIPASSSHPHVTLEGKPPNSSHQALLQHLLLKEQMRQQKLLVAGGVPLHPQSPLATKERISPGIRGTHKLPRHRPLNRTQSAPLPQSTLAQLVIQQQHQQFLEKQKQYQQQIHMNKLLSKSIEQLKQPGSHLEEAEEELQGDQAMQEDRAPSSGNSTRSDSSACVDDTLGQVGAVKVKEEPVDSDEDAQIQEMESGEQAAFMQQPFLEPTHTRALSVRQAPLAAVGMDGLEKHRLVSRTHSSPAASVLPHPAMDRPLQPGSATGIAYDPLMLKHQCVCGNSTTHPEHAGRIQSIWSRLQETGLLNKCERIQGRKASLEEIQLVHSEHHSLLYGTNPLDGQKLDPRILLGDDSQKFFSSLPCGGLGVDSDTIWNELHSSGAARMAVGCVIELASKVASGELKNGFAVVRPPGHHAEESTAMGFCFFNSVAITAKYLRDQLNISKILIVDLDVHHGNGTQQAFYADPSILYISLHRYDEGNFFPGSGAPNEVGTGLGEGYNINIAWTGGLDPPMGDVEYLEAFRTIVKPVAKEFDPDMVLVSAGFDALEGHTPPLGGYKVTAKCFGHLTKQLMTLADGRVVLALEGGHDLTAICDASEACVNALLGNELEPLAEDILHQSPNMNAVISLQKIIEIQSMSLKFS
Sequence of HDAC8 (Q9BY41 whole entry): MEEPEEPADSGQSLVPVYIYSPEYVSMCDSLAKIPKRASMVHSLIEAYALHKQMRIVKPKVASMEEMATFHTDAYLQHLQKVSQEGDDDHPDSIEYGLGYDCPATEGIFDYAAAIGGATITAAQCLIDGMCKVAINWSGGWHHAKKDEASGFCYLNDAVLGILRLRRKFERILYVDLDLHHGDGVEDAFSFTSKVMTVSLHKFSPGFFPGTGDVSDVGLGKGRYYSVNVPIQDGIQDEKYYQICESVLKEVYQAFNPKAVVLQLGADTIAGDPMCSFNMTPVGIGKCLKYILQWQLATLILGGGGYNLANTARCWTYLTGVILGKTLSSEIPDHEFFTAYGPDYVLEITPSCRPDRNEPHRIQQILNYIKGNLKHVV

COc1ccc(CN2[C@@H](C(=O)NCCCCCCC(=O)NO)Cc3c([nH]c4ccccc34)[C@@H]2C2CC2)cc1 [Compound 13d, (1S,3R)-1-Cyclopropyl-N-(7-(hydroxyamino)-7-oxoheptyl)-2-(4-methoxybenzyl)-2,3,4,9-tetrahydro-1H-pyrido[3,4-b]indole-3-carboxamide]
inhibition at 10 µM (SK-MEL-5): 100% | IC50 [1]: 1540 ± 30 nM | IC50 (HDAC5): > 50 µM | activity for HDAC5 (in words) (HDAC5): no activity | inhibition at 10 µM (ACHN): 99.3% | inhibition at 10 µM (SNB-75): 89.8% | inhibition at 10 µM (RPMI-8226): 84.3% | IC50 (HDAC8): > 50 µM | activity for HDAC8 (in words) (HDAC8): no activity | inhibition at 10 µM (HCT-116): 97.9% | inhibition at 10 µM (IGROV1): 100% | inhibition at 10 µM (KM12): 87.5% | inhibition at 10 µM (HT29): 93.7% | inhibition at 10 µM (NCI/ADR-RES): 38% | inhibition at 10 µM (NCI-H23): 100% | inhibition at 10 µM (SR): 84% | inhibition at 10 µM (T-47D): 100% | inhibition at 10 µM (SW-620): 100% | inhibition at 10 µM (UACC-257): 90.1% | inhibition at 10 µM (HOP-92): 100% | inhibition at 10 µM (SF-268): 85.5% | IC50 (HDAC9): > 50 µM | activity for HDAC9 (in words) (HDAC9): no activity | inhibition at 10 µM (TK-10): 100% | inhibition at 10 µM (SK-MEL-2): 100% | inhibition at 10 µM (UACC-62): 100% | inhibition at 10 µM (NCI-H226): 71.9% | inhibition at 10 µM (SF-539): 97.1% | IC50 (HDAC4): > 50 µM | activity for HDAC4 (in words) (HDAC4): no activity | inhibition at 10 µM (HCT-15): 91.2% | inhibition at 10 µM (NCI-H460): 93.6% | inhibition at 10 µM (OVCAR-5): 100% | inhibition at 10 µM (LOX IMVI): 100% | inhibition at 10 µM (A549/ATCC): 82.7% | inhibition at 10 µM (HL60): 96.6%
